This passage reports MIC results from US3983102A, “Process for preparing 5"-amino-4',5"-dideoxybutirosin A” (Parke, Davis & Company, priority 1975, dated 1976).

In brackets after ≈: the same amount, converted by molar mass.

Assay in all cases: in vitro antibacterial screening, MIC by microtitration in TSB
What all share (type): cell-based

The test system of one assay is Pseudo. aerug. 74C-1. The settings on record: Pseudomonas aeruginosa. The source says:
(§1) They show activity when tested by well-recognized in vitro antibacterial screening procedures.

In another assay the test system is Klebs. pneumoniae MGH-1. The settings on record: Klebsiella pneumoniae, MGH1.
From the text: as §1

Another assay has as its system Serr. marcescens IMM-5. As to conditions: Serratia marcescens, IMM5.
From the text: as §1

In the next assay the test system is Pseudo. aerug. 130. The settings on record: Pseudomonas aeruginosa, Pseudo. aerug. 130, gentamicin resistant.
From the text: as §1

For a further assay, the system named is Pseudo. aerug. LA-3399. As to conditions: Pseudomonas aeruginosa.
From the text: as §1

The test system of another assay is Pseudo. aerug. VAD12-7-7. As to conditions: Pseudomonas aeruginosa.
From the text: as §1

For a further assay, the system named is Esch. coli JR-76.2. As to conditions: Escherichia coli, JR76.2.
From the text: as §1

The next assay has as its system Pseudo. aerug. G-76. As to conditions: Pseudomonas aeruginosa, Pseudo. aerug. G-76, butirosin and gentamicin resistant.
From the text: as §1

The next assay concerns Pseudo. aerug. UI-18. As to conditions: Pseudomonas aeruginosa.
From the text: as §1

The test system of another assay is Pseudo. aerug. Aquilar. As to conditions: Pseudomonas aeruginosa, butirosin resistant.
From the text: as §1

Another assay relates to Staph aureus S18713. The settings on record: Staphylococcus aureus, Staph aureus S18713, butirosin resistant.
From the text: as §1

The subject of another assay is Pseudo. aerug. No. 28. The settings on record: Pseudomonas aeruginosa.
From the text: as §1

A further assay has as its system Entero. cloacae IMM-50. As to conditions: Enterobacter cloacae, IMM50.
From the text: as §1

The subject of a further assay is Pseudo. aerug. 58.38. As to conditions: Pseudomonas aeruginosa.
From the text: as §1

Another assay concerns Pseudo. aerug. 733. The settings on record: Pseudomonas aeruginosa.
From the text: as §1

Broadly, the MIC is the lowest concentration found to suppress growth. The low end stands for a more susceptible organism, the high end for a less susceptible organism. Regarding `NCC[C@H](O)C(=O)N[C@@H]1C[C@H](N)[C@@H](O[C@H]2O[C@H](CN)C[C@H](O)[C@H]2N)[C@H](O[C@@H]2O[C@H](CN)[C@H](O)[C@H]2O)[C@H]1O` [I carbonate, 5"-amino-4',5"-dideoxybutirosin A], the MIC is 3.1 µg/mL (≈ 5.76 µM) against Pseudo. aerug. 74C-1; 6.3 µg/mL (≈ 11.7 µM) in the assay on Klebs. pneumoniae MGH-1; 12.5 µg/mL (≈ 23.2 µM) against Serr. marcescens IMM-5; 6.3 µg/mL (≈ 11.7 µM) with Pseudo. aerug. 130; 12.5 µg/mL (≈ 23.2 µM) with Pseudo. aerug. LA-3399; 1.6 µg/mL (≈ 2.97 µM) against Pseudo. aerug. VAD12-7-7. The MIC against Esch. coli JR-76.2 was 25 µg/mL (≈ 46.4 µM); in the assay on Pseudo. aerug. G-76 it was 12.5 µg/mL (≈ 23.2 µM); in the assay with Pseudo. aerug. UI-18, 6.3 µg/mL (≈ 11.7 µM); with Pseudo. aerug. Aquilar it was 25 µg/mL (≈ 46.4 µM); against Staph aureus S18713, 6.3 µg/mL (≈ 11.7 µM); with Pseudo. aerug. No. 28, 3.1 µg/mL (≈ 5.76 µM). The minimal inhibitory concentration (MIC) in the assay on Entero. cloacae IMM-50, with Pseudo. aerug. 58.38 and against Pseudo. aerug. 733 was 6.3 µg/mL (≈ 11.7 µM) each time.
